# Several values for one entry are separate records, joined by “and”; a condition that tells them apart may be missing. Identical values can stand only once. Entries after “also recorded” stand apart in the source; their conditions may differ. Like-named read-outs stand apart in the source and are kept apart here.
# Legend:
# Nav1.5 = assay: Patch-clamp (voltage clamp) recording of VGSC current in HEK cells stably expressing Nav1.5; conditions: for IC50: read-out: IC50 (VGSC inhibition)
# Nav1.1 = assay: Patch-clamp recording of VGSC current in HEK (Nav1.1) cells; type: cell-based, human
# Source text: (§1) The cells used in the previous (18-1) experiment were cardiac-type VGSC cells. In this experiment, HEK (Nav1.1) and HEK (Nav1.6) cells, which are considered neuronal VGSC cells, were created. The effects of four peptides—Aβ25-35, Aβ1-38, Aβ1-40, and Aβ1-42—were examined using the same experimental protocol as in (18-1).
# [1] = system: Nav1.5 in T1R3-silenced HEK cells; assay: VGSC current in HEK Nav1.5 cells with silenced T1R3; type: cell-based, human
# Source text: The miRNAs Oligo (Thermofisher) used for silencing were annealed to form double-stranded DNA, which was then linked to the miR RNAi Expression Vector using T4 DNA ligase to create the knockdown vector. Specifically, the procedure followed the miR RNAi Expression Vector Kit manual (BLOCK-i™ Pol II miR RNAi Expression Vector Kit with EmGFP (Catalog number: K493600)).
# Since Aβ25-35 peptide produced similar effects (enhancing VGSC activity, lowering the excitability threshold) as glutamine, it was considered that Aβ25-35 peptide might also act on T1R2/T1R3 receptors like glutamine. Therefore, in this implementation example, we used HEK-Nav1.5 cells with silenced T1R3 and compared the effect of Aβ25-35 peptide on VGSC with that in control HEK-Nav1.5 cells.
# To strengthen these findings, we conducted similar experiments using HEK Nav1.5 cells in which T1R3 expression was silenced (FIG. 22). We measured VGSC currents in T1R3-silenced HEK Nav1.5 cells, applying stimuli every 8 seconds.
# [2] = system: endogenous T1R GPCR of HEK cells; assay: Intracellular calcium (Cal-520) in HEK cells stably expressing Nav1.1 with endogenous T1R GPCR; type: cell-based, human; conditions: 10 nM then 20 nM for Aβ1-40 and Aβ1-42
# Method: Specifically, experiments were conducted as follows using HEK cells stably expressing Nav1.1 (FIG. 45). The calcium-sensitive reagent (Cal-520, AAT Bioquest) was incubated at 37° C. for 60 minutes, followed by incubation at room temperature for 30 minutes, and then changes in intracellular calcium were measured using a fluorescence microscope. […] Initially, 10 nM, followed by 20 nM of Aβ1-40 was applied after 5 minutes (arrow). […] A total of 6 cell groups from two independent experiments were measured, averaged by the maximum fluorescence response value, and the mean and standard error (stderr) were calculated and plotted. […] 10 nM, followed by 20 nM of Aβ1-42 was applied after 5 minutes (arrow). […] A total of 12 cell groups from two independent experiments were measured, averaged by the minimum fluorescence response value, and the mean and standard error (stderr) were calculated and plotted. Similar to the experimental results using the patch-clamp method when Aβ peptide was applied to Nav1.5, it was confirmed from intracellular calcium measurements that the effects of Aβ1-40 and Aβ1-42 were different.
# Nav1.6 [3] = assay: Patch-clamp recording of VGSC current in HEK (Nav1.6) cells; type: cell-based, human
# Source text: as §1, with “(18-1). […]” for “(18-1).”
# Nav1.6 [4] = assay: as above; type: cell-based, human; conditions: HEK Nav1.6, prepulse −80 mV; read-out: IC50 (VGSC inhibition)
# SH-SY5Y cells [5] = assay: Cell morphology observation, SH-SY5Y cells; type: cell-based, human; conditions: 120 μM; undifferentiated SH-SY5Y cells
# VGSC = assay: Patch-clamp recording of VGSC current, cell type not specified or several cell types (summary statements); type: cell-based, human; conditions: for IC50: read-out: IC50 for inhibition of VGSC; for Enhancement of VGSC current at high(er) concentration: high concentration (desensitization)
# SH-SY5Y cells [6] = assay: Action potentials of differentiated SH-SY5Y cells (current clamp, NanoCharge method); type: cell-based, human; conditions: listed as Aβ25-35 peptide
# Method: Next, using the current-clamp mode, we applied current stimulation and recorded action potentials from differentiated SH-SY5Y cells (FIG. 5, from the lower to the upper part of the figure, rectangular wave current stimulation was applied. The current strengths were 6, 8, 10, and 12 pA from the bottom). Before the application of Aβ25-35 peptide, action potentials were not induced at stimulation currents of 6 pA and 8 pA, but action potentials were recorded at stronger stimulation currents (10 pA and 12 pA).
# By using magnetic conductive nanoparticles as intracellular electrodes for measuring the neuronal action potentials of differentiated SH-SY5Y cells, and combining this with a capacitive potential detection device to measure changes in intracellular potentials, the spontaneous action potentials of these cells were measured. Specifically, 6.25 nM of the T1R3 agonist Aβ25-35 peptide was added to 400 μl of SH-SY5Y cell culture medium, and the spontaneous action potentials before and after the addition of Aβ25-35 peptide were measured to observe the changes.
# This membrane potential recording method focuses on the magnetic conductive nanoparticles penetrating the cell membrane, the cover glass on which the cells are seeded, and the electrode placed below the cover glass forming a capacitor. The charge (Q) charged to this capacitor is recorded as the membrane potential in terms of charge rather than voltage changes. Since the charge (Q) is obtained from Q=CV, where C is the capacitance and V is the potential, the charge changes measured here are influenced by the capacitor (C) (FIG. 43).
# [7] = system: VGSC of SH-SY5Y cells (Nav1.7, Nav1.2, Nav1.3); assay: Patch-clamp recording of VGSC current in differentiated SH-SY5Y cells; type: cell-based, human; conditions: 1-6 μM (2 μM in FIG. 4); listed as Aβ25-35 peptide
# Source text: Furthermore, the inventors focused on the relationship between taste receptors, particularly the sweet or umami receptors containing the T1R3 subunit, which are widely expressed in the brain and nervous system, including the hippocampus and cortex. They used human neuroblastoma cells (SH-SY5Y) that functionally express Nav1.2, Nav1.3, and Nav1.7 (as reported in non-patent literature 8), as well as HEK cells stably expressing Nav1.5 (with endogenous expression of T1R1, T1R2, and T1R3). They observed the effects of taste stimuli on sodium channel activation. By reducing the expression of T1R1 and T1R3 genes using silencing vectors, they confirmed that the effects on sodium channel currents induced by taste stimuli act through taste receptor GPCRs.
# The SH-SY5Y cell culture medium was prepared by mixing DMEM (Sigma-Aldrich) and F-12 (Sigma-Aldrich) in equal proportions. To induce neuronal-like differentiation, the medium contained 1% FBS (BioWest), 5% 40 mM L-Glutamine (Fuji Film), and 1% MEM non-essential amino acids (Wako Pure Chemical Industries). During differentiation, SH-SY5Y cells were cultured for at least 5 days with the addition of 10 μM/ml retinoic acid (Fuji Film). In this document, “SH-SY5Y cells” refer to the SH-SY5Y cell line differentiated into neuronal-like cells.
# HEK Nav1.5 cells = assay: GFP-Tubulin / GFP-Actin cytoskeleton observation in HEK Nav1.5 cells; type: cell-based, human; conditions: MSG 5 mM
# Source text: To observe the impact of cinacalcet and Aβ1-42 peptide on microfilament (actin) fiber structures, we labeled cells with GFP-Actin (FIG. 34). […] This experimental approach, using GFP-Tubulin, GFP-Actin, or other fluorescent proteins to label microtubules and microfilaments, can be used to screen compounds that regulate the activity of ion channels and neuronal function-controlling proteins. Additionally, simultaneous labeling of tubulin and actin can be achieved using fluorescent antibodies or phalloidin after cell fixation.
substance,measurement,setting,value
"Aβ1-38: amyloid β peptide (Peptide Institute), Sequence No. 2",Effect on VGSC inactivation,Nav1.5,delayed inactivation effect
same,Shift of steady-state inactivation (S-S) curve of VGSC,Nav1.5,shifted to the right; also recorded: shifting to the depolarizing side
same,VGSC current from prepulse/holding potential −80 mV,Nav1.5,enhancing currents; also recorded: significantly amplified
same,VGSC current from prepulse/holding potential −120 mV,Nav1.5,decreased; also recorded: slightly decreased
same,Effect on VGSC current,Nav1.1,VGSC enhancement
same,Effect on VGSC in T1R3-silenced cells,[1],is lost
same,Change in intracellular calcium,[2],an increase in intracellular calcium was observed
same,Effect on VGSC current,Nav1.6 [3],VGSC enhancement
Aspartame,IC50,Nav1.5; prepulse −70 mV,15.3 µM
same,IC50,Nav1.5; prepulse −100 mV,49.7 µM
same,IC50,Nav1.6 [4],17 µM
same,Change in cell morphology,SH-SY5Y cells [5],contracted cell morphology; also recorded: cell contraction
same,Effects on VGSCs,VGSC,Inhibition of VGSCs
same,Inhibition of VGSC,VGSC; 50 μM,> 90%. Inhibition is due to a parallel shift
same,IC50,VGSC; listed as aspartame,15 to 17 µM and < 17 µM
same,IC50,VGSC,< 50 µM
GSNKGAIIGLM [Aβ25-35],Frequency of spontaneous action potentials,"SH-SY5Y cells [6]; 6.25 nM, NanoCharge method",an increase in spontaneous action potential frequency; also recorded: an increase in the frequency of spontaneous action potentials
same,Excitability / action potential threshold,"SH-SY5Y cells [6]; current clamp, 6-12 pA stimulation",increased the excitability of SH-SY5Y cells; also recorded: threshold for generating action potentials was lowered
same,Effect on VGSC inward current,[7],enhancement of transient downward VGSC current; also recorded: enhancement of VGSC inward current
same,Cell membrane capacitance and VGSC current,"Nav1.5; 12.5 nM, perforated patch-clamp",increase in cell membrane capacitance and VGSC current
same,Cell membrane capacitance and VGSC currents,"Nav1.5; 120 nM, perforated patch-clamp",increased
same,Cell membrane capacitance and VGSC currents,"Nav1.5; 240 nM, perforated patch-clamp",decreased to control levels
same,Effect on VGSC current,"Nav1.5; 1 μM, control HEK Nav1.5 cells",enhancing effect; also recorded: enhancement effect
same,Increase in VGSC current amplitude,Nav1.5; control without anti-T1R3 antibody pre-treatment,10-20%
same,VGSC current density (pA/pF),"Nav1.5; low concentration, perforated patch-clamp",current density of VGSC increased
same,Microtubule fibrous structure (GFP-Tubulin),HEK Nav1.5 cells,disappearance of microtubule-like structures
same,Effect on VGSC current,Nav1.1,VGSC enhancement
same,Effect on VGSC in T1R3-silenced cells,[1],is lost
same,Change in VGSC,[1]; 2 μM,no change in VGSC was observed
same,Effect on VGSC in T1R3-silenced cells,[1]; listed as ab25-35,T1R3 silencing nullifies ab25-35's
same,Change in intracellular calcium,[2],an increase in intracellular calcium was observed
same,Effect on VGSC current,Nav1.6 [3],VGSC enhancement
same,Effects on VGSCs,VGSC,Enhancement of VGSC
same,Effect on VGSC current in the presence of colchicine,"VGSC; 12.5 nM, colchicine 2.25 μM",inhibits Aβ25-35-induced enhancement; also recorded: no further enhancement of VGSC current was observed
same,Effect on VGSC current,VGSC; 125 nM to 2 μM,Ab25-35 (125 nM to 2 μM) enhances
same,Effect on VGSC current in the presence of Latrunculin A,"VGSC; 12.6 μM LatA, Aβ25-35 printed 12.5 μM",VGSC amplification; also recorded: doubled
same,Enhancement of VGSC current at high(er) concentration,VGSC,VGSC current but not at higher
same,Enhancement of VGSC current at high(er) concentration,VGSC; listed as Ab25-35,Ab25-35 is suppressed

# — US20260240820A1, “METHOD FOR CONTROLLING MEMBRANE POTENTIAL-DEPENDENT ION CHANNEL THROUGH TYPE I TASTE RECEPTORS (T1RS)” (ION CHAT RESEARCH CORPORATE, priority 2022, published 2026)
